Patent US8999960B2, “Oxidized thiophospholipid compounds and uses thereof” (Vascular Biogenics Ltd., priority 2008, dated 2015)
“And” between values parts separate entries of the source, which are not always exact repeats. Equal values may be shown once.

Key:
[1] = system: IL12/23p40 production by peptidoglycan-activated BMDCs; assay: In vitro IL12/23p40 assay (ELISA); type: cell-based, mouse; conditions: 1 to 20 μg/ml added for 1 hour, then 24 hours with 10 μg/ml peptidoglycan (FIG. 2)
Protocol: Bone marrow derived cells (BMDCs) were obtained from the femur and tibia of female C57BL mice. Bone-marrow was flushed out femur and tibia with cold RPMI-1640. A cell suspension was prepared, and erythrocytes were removed using red blood cell (RBC) lysis buffer. […] Cells were then washed, resuspended in the same buffer, and depleted from B and T cells on a Midi-Macs separation unit through a LD or LS column (Miltenyi Biotech). The cells were prepared freshly for each experiment.
The depleted bone marrow cells were counted, washed and seeded at a concentration of 10^6 cells/ml in medium containing RPMI-1640, L-glutamine, β-mercaptoethanol, 10% fetal calf serum (FCS), antibiotics (penicillin/streptomycin) and 20 ng/ml of mouse GM-CSF (granulocyte-macrophage colony-stimulating factor). Medium was replaced every other day. On days 5-6 post culturing, cells were collected, counted and seeded at a concentration of 10^6 cells/ml in the above medium. CI-211 was then added for 1 hour. The cells were activated for IL12/23p40 production by incubation for 24 hours with 10 μg/ml peptidoglycan (PGN). Cytokine production from the supernatant was measured by ELISA. Activated cells without CI-211 were used as the control.

[2] = system: phosphotyrosine (p-Tyr) in thioglycollate stimulated mouse macrophages; assay: Tyrosine phosphorylation assay (Western blot, anti-phosphotyrosine antibody); type: cell-based; conditions: 20 μg/ml, 10 minutes, Western blot (FIG. 1)
Protocol: Thioglycollate stimulated mouse macrophages were treated for 10 minutes with 20 μg/ml of the tested compound in phosphate buffered saline (PBS) with 1% ethanol. Treatment with either 20 μg/ml of phosphatidylcholine or solvent (PBS with 1% ethanol) was used as a negative control. Treatment with 20 μg/ml CI-201 (1-hexadecyl-2-(4′-carboxy)butyl-sn-glycero-3-phosphothiocholine) was used as a positive control.
Proteins with phosphorylated tyrosine were then observed by Western blot, using a monoclonal anti-phosphotyrosine antibody. Western blotting for ERK1/2 was performed as a control for protein loading.

[3] = system: Thioglycollate-elicited mouse peritoneal macrophages; assay: In vitro toxicity assay (crystal violet staining, cell numbers); type: cell-based; conditions: 1, 2.5, 5, 10 or 20 μg/ml
[4] = system: Thioglycollate-elicited mouse peritoneal macrophages; assay: as above; type: cell-based; conditions: for Macrophage survival rate: 24 hours incubation, normalized to vehicle, mean ± SD, one of three experiments; for LD50: mouse peritoneal macrophages, 24 hours
Protocol: Thioglycollate-elicited mouse peritoneal macrophages were washed, counted and seeded (5×10^5 cells per well in 24-well plates) in triplicate wells in medium containing RPMI-1640, L-glutamine, 10% fetal calf serum (FCS) and antibiotics (penicillin/streptomycin). After a recovery period of 24 hours, the tested compound (or controls) was added to the cell medium at doses of 2, 10, 20, 50, 100 or 150 μg/ml, keeping the added volume equal in all treatments by complementing the volume with solvent.
Following addition of the compounds, the cells were incubated for an additional 24 hours, after which the cells were washed, fixed with a solution of 10% methanol/10% acetic acid and stained with crystal violet (0.4% in 20% ethanol). Cell numbers were measured by determining optical density at 595 nm. Cells incubated with vehicle (PBS with 1% ethanol) were used as a control, to which cell numbers in treated samples were normalized. Each experiment was performed three times.

Row | Compound | IL12/23p40 secretion [1] | tyrosine phosphorylation levels [2] | toxicity at the concentrations used in the IL12/23p40 assay [3] | Macrophage survival rate ([4]; 2 μg/ml) | Macrophage survival rate ([4]; 10 μg/ml) | LD50 [4] | Macrophage survival rate ([4]; 20 μg/ml) | Macrophage survival rate ([4]; 50 μg/ml)
1 | 1-hexadecyl-2-(4-carboxy)butyl-sn-glycero-3-thiophosphorylcholine [CI-211] | decreased | reduced | non-toxic | 124.7 ± 11.4% and 113.2 ± 7% and 90.4 ± 22.4% | 111.6 ± 28.8% and 118.4 ± 4.2% and 127.9 ± 11.5% | above 100 μg/ml and > 167 μM | – | –
2 | CCCCCCCCCCCCCCCCOC[C@H](COP(=O)([O-])OCC[N+](C)(C)C)OCCCCC(=O)O [CI-201, 1-hexadecyl 2 (4 carboxy)butyl-sn-glycero-3-phosphocholine, reference compound] | – | reduced | – | – | – | – | – | –
3 | CCCCCCCCCCCCCCCCOCC(COP(O)(=S)OCCN)OCCCCC(=O)O (stereo not drawn) [CI-212, 1-hexadecyl-2-(4-carboxy)butyl-sn-glycero-3-O-thiophosphorylethanolamine] | – | reduced | – | 98.7 ± 10.3% and 77.5 ± 5.5% and 80.8 ± 31% | – | above 50 μg/ml and > 90 μM | 90.6 ± 21.4% and 75.6 ± 9.5% and 97.5 ± 36.4% | 71.4 ± 11.4% and 55.1 ± 18.9% and 97.1 ± 48.1%
